One may read the pKi as the Ki on a negative log10 scale, so that one unit is a factor of ten. Lower therefore signals a large Ki.

pKi: −log10 of the molar value.

Test [1] relates to normal Sprague Dawley rats. In words: Mixed carbohydrate tolerance test in normal rats. It counts as in vivo, rat. The procedure:
Study on normal rats. The efficacy of mizagliflozin (decreasing plasma glucose levels) in normal Sprague Dawley rats was determined in a mixed carbohydrate tolerance test. Normal rats were fasted for 16 hours and then given an oral loading dose of 2.0 g/kg of mixed carbohydrate (soluble starch:sucrose:lactose monohydrate=6:3:1). Mizagliflozin (KGA-3235 sebacate), or water as the vehicle control, was then administered as a single oral dose to groups of male rats (n=8/group) at doses of 0.03, 0.1, 0.3, and 1 mg/kg. Voglibose, a glucosidase inhibitor similar to acarbose, was used as a positive control and was administered as a single oral dose to male rats (n=8/group) at dose levels of 0.1, 0.3 and 1 mg/kg. Blood samples were collected just prior to loading with mixed carbohydrate and at 0.5, 1, 2, 3, 4, and 6 hours after loading.

In test [2] the test system is STZ-induced diabetic rats. In words: Mixed carbohydrate tolerance test in STZ-induced diabetic rats (Example 3). It counts as in vivo, rat. The note with it: mixed carbohydrate 2.0 g/kg. The procedure:
Study in diabetic rats. Mizagliflozin was tested in a rat model for diabetes and efficacy, as measured by a relative decrease in plasma glucose, was determined using a mixed carbohydrate tolerance test. Diabetic model rats were prepared by intravenous administration of streptozotocin (STZ) to induce diabetes. Seven days after STZ administration, rats were fasted for 16 hours and then given an oral loading dose of 2.0 g/kg of mixed carbohydrate (soluble starch:sucrose:lactose monohydrate=6:3:1). Mizagliflozin, or water as the vehicle control, was then administered as a single oral dose to groups of male rats (n=8/group) at doses of 0.01, 0.03, 0.1, and 0.3 mg/kg. Another control group was given vehicle and consisted of normal male Sprague Dawley rats that were not administered STZ. Voglibose was also administered as a single oral dose to male rats (n=8/group) at dose levels of 0.03, 0.1 and 0.3 mg/kg. Blood samples were collected just prior to loading with mixed carbohydrate and at 0.5, 1, 2, 3, 4, and 6 hours after loading. Plasma glucose concentrations were determined and ΔAUC0-1 h for plasma glucose was calculated.

In test [3] the test system is STZ-induced diabetic rats. In words: Oral glucose tolerance test in STZ-induced diabetic rats (Example 4). The class given is in vivo, rat. The protocol:
Study in diabetic rats using oral glucose tolerance test. Efficacy of mizagliflozin was tested in a rat model for diabetes using an oral glucose tolerance test (OGTT). Diabetic model rats were prepared by intravenous administration of STZ to induce diabetes. Seven days after STZ administration, rats were fasted for 16 hours and then given an oral loading dose of 2.0 g/kg of glucose. Mizagliflozin, or water as the vehicle control, was then administered as a single oral dose to groups of male rats (n=8/group) at doses of 0.03, 0.1, 0.3, and 1 mg/kg. Another control group was given vehicle and consisted of normal male Sprague Dawley rats that were not administrated STZ. Voglibose was also administered as a single oral dose to male rats (n=8/group) at dose levels of 0.1, 0.3 and 1 mg/kg. Blood samples were collected just prior to loading with mixed carbohydrate and at 0.5, 1, 2, 3, 4, and 6 hours after loading. Plasma glucose concentrations were determined and ΔAUC0-1 h for plasma glucose was calculated.

A further test concerns the target T1, rat SGLT2 (Rattus norvegicus, UniProt P53792).
T1 construct: expressed in transfected cells; host or cells: COS-7
T1 sequence (P53792 1-670): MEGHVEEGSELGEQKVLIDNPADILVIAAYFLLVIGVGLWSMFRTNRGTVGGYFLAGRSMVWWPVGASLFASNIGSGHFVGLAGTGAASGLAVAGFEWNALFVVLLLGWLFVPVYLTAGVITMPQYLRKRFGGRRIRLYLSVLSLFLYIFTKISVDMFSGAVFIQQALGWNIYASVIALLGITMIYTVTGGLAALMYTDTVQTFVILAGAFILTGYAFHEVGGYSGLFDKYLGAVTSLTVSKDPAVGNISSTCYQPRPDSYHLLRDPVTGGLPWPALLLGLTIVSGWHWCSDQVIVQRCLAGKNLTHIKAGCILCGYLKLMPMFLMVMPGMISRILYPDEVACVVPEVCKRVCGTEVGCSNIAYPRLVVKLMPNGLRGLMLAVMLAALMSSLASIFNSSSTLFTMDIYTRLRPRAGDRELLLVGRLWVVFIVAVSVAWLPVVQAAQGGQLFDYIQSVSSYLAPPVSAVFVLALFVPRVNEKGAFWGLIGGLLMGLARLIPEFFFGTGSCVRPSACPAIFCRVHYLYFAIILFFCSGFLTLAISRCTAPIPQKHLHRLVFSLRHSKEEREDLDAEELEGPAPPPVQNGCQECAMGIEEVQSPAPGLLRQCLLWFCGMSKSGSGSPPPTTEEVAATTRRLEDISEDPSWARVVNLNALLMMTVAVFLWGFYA
In words: Inhibition of radiolabeled α-MG uptake into COS-7 cells transfected with rat SGLT2 (Dixon plot). The class given is cell-based. The note with it: α-MG 0.3 and 1 mM. The procedure: Selective inhibition study. Inhibition constants (Ki) of mizagliflozin for rat and human SGLT1 and SGLT2 were determined measuring concentration-dependent effects of test compound on uptake of radiolabeled methyl-α-D-glucopyranoside (α-MG) into COS-7 cells transiently transfected with cloned SGLT1 or SGLT2. Mizagliflozin was assessed at concentrations from 1 to 30 μM and 3 to 100 μM for human and rat SGLT2, respectively. It was assessed at concentrations from 30 nM to 1 μM and 10 to 30 nM for human and rat SGLT1, respectively. α-MG test concentrations were 0.3 and 1 mM. Data were analyzed and Ki determined using Dixon plots of initial transport rates. […] Inhibition constants were also determined for human SGLT1 and SGLT2.

Take `OCC(CO)N[C@H]1C[C@](O)(CO)[C@@H](O)[C@H](O)[C@H]1O` [voglibose, reference compound]: the ED50 in test [1] (Rattus norvegicus, read-out: ED50 calculated from mean ΔAUC0-1 h (% of control), mixed carbohydrate 2.0 g/kg, single oral dose) is 0.32 mg/kg. In addition, the “ΔAUC0-1 h of plasma glucose versus vehicle control” value in test [1] (mixed carbohydrate 2.0 g/kg), in test [2] and in test [3] (glucose 2.0 g/kg) was “significant decrease” in each case. The “ΔAUC0-1 h relative to control group” value in test [3] (OGTT, maximum dose 1 mg/kg) is “not half or less than half that in the control group”.

On rat SGLT2, `O=C(CCc1ccc(O)cc1)c1c(O)cc(O)cc1O[C@@H]1O[C@H](CO)[C@@H](O)[C@H](O)[C@H]1O` [phlorizin, reference compound] showed a pKi of 7.39.

Source of the values: US11596644B2, “Method for treating post-prandial hypoglycemia” (AVOLYNT, priority 2018, dated 2023).
